From PubChem BioAssay (NCI)
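Each compound was tested at five concentrations against cells in 96-well plates for 48 hours. Here, GI50 denotes the concentration required for 50% inhibition of growth. At the TGI there is no net growth.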

Columns and labels:
Test in all cases: growth of human tumour cells (NCI), 48 h; in the data active = GI50 below about 0.43 µM; inactive = the rest
SK-MEL-2 melanoma = tested on: SK-MEL-2 melanoma
KM20L2 colon = tested on: KM20L2 colon
SN12C renal = tested on: SN12C renal
HCT-15 colon = tested on: HCT-15 colon
SNB-75 CNS = tested on: SNB-75 CNS
SNB-19 CNS = tested on: SNB-19 CNS
786-0 renal = tested on: 786-0 renal
HL-60(TB) leukemia = tested on: HL-60(TB) leukemia
NCI-H522 lung = tested on: NCI-H522 lung
NCI-H460 lung = tested on: NCI-H460 lung

O=c1[nH]c(-c2ccc([N+](=O)[O-])cc2)nc2ccc(Cl)cc12
> 100 µM: TGI (SK-MEL-2 melanoma) | TGI (KM20L2 colon) | TGI (SN12C renal) | TGI (HCT-15 colon) | TGI (SNB-75 CNS) | TGI (SNB-19 CNS) | TGI (786-0 renal)

Cc1cc(C)c(C2=NO[C@@H]3C(=O)N(c4ccc(Cc5ccc(N6C(=O)[C@H]7C(c8c(C)cc(C)cc8C)=NO[C@H]7C6=O)cc5)cc4)C(=O)[C@H]23)c(C)c1
> 100 µM: TGI (SK-MEL-2 melanoma) | TGI (KM20L2 colon) | TGI (HL-60(TB) leukemia) | TGI (SN12C renal) | TGI (HCT-15 colon) | TGI (SNB-75 CNS) | TGI (786-0 renal)

O=[P+](O)c1cccnc1
> 100 µM: TGI (NCI-H522 lung) | TGI (KM20L2 colon) | TGI (HL-60(TB) leukemia) | TGI (SN12C renal) | TGI (HCT-15 colon) | TGI (SNB-75 CNS) | TGI (SNB-19 CNS) | TGI (NCI-H460 lung) | TGI (786-0 renal)

Cc1cc2c(C)nn(Cc3ccccc3Cl)c2c(C#N)c1C
> 100 µM: TGI (SK-MEL-2 melanoma) | TGI (KM20L2 colon) | TGI (HL-60(TB) leukemia) | TGI (SN12C renal) | TGI (HCT-15 colon) | TGI (SNB-75 CNS) | TGI (SNB-19 CNS) | TGI (NCI-H460 lung) | TGI (786-0 renal)

NC(CSC1(c2ccc(Cl)cc2)c2ccccc2-c2ccccc21)C(=O)O (stereo unspecified)
52.8 µM: TGI (SNB-19 CNS)
62.9 µM: TGI (SNB-75 CNS)
41.8 µM: TGI (SK-MEL-2 melanoma)
41.4 µM: TGI (SN12C renal)
30.4 µM: TGI (NCI-H522 lung)
50.9 µM: TGI (786-0 renal)
> 100 µM: TGI (HL-60(TB) leukemia)
47.3 µM: TGI (HCT-15 colon)
39.5 µM: TGI (NCI-H460 lung)

O=C1Nc2c(ccc(Cl)c2Cl)/C1=C\c1cc(C(F)(F)F)cc(C(F)(F)F)c1
inactive: GI50 (NCI-H522 lung) 1.54 µM | GI50 (SK-MEL-2 melanoma) 4.11 µM | GI50 (HL-60(TB) leukemia) 1.13 µM | GI50 (SN12C renal) 3.59 µM | GI50 (HCT-15 colon) 1.4 µM | GI50 (SNB-75 CNS) 1.05 µM | GI50 (SNB-19 CNS) 5.7 µM | GI50 (NCI-H460 lung) 2.45 µM | GI50 (786-0 renal) 4.29 µM
7.48 µM: TGI (SNB-75 CNS)
10.4 µM: TGI (786-0 renal)
2.37 µM: TGI (HL-60(TB) leukemia)
6.47 µM: TGI (NCI-H522 lung)
6.07 µM: TGI (HCT-15 colon)
7.68 µM: TGI (NCI-H460 lung)
19.3 µM: TGI (SNB-19 CNS)
10.9 µM: TGI (SK-MEL-2 melanoma) | TGI (SN12C renal)

CS(=O)(=O)c1ccc(-c2cnc(NCc3ccco3)n3cnnc23)cc1
inactive: GI50 (NCI-H522 lung) > 100 µM | GI50 (SK-MEL-2 melanoma) 66.6 µM | GI50 (HL-60(TB) leukemia) 39.7 µM | GI50 (SN12C renal) > 100 µM | GI50 (HCT-15 colon) > 100 µM | GI50 (SNB-75 CNS) > 100 µM | GI50 (SNB-19 CNS) > 100 µM | GI50 (NCI-H460 lung) > 100 µM | GI50 (786-0 renal) > 100 µM
> 100 µM: TGI (NCI-H522 lung) | TGI (SK-MEL-2 melanoma) | TGI (HL-60(TB) leukemia) | TGI (SN12C renal) | TGI (HCT-15 colon) | TGI (SNB-75 CNS) | TGI (SNB-19 CNS) | TGI (NCI-H460 lung) | TGI (786-0 renal)

O=Cc1cn(S(=O)(=O)c2ccccc2)c2ccccc12
49.2 µM: TGI (HL-60(TB) leukemia)
> 100 µM: TGI (KM20L2 colon) | TGI (SN12C renal) | TGI (HCT-15 colon) | TGI (SNB-75 CNS) | TGI (SNB-19 CNS) | TGI (NCI-H460 lung) | TGI (786-0 renal)

CC/C(=C(/CC)c1ccc(O)cc1)c1ccc(O)cc1
18.6 µM: TGI (786-0 renal)
25.5 µM: TGI (SNB-19 CNS)
28.6 µM: TGI (SN12C renal)
inactive: GI50 (NCI-H522 lung) 5.79 µM | GI50 (SK-MEL-2 melanoma) 9.23 µM | GI50 (HL-60(TB) leukemia) 4.07 µM | GI50 (SN12C renal) 5.9 µM | GI50 (HCT-15 colon) 4.79 µM | GI50 (SNB-75 CNS) 2.2 µM | GI50 (SNB-19 CNS) 10.6 µM | GI50 (NCI-H460 lung) 4.05 µM | GI50 (786-0 renal) 5.59 µM
> 100 µM: TGI (HL-60(TB) leukemia)
23 µM: TGI (NCI-H522 lung)
20 µM: TGI (HCT-15 colon)
15.2 µM: TGI (NCI-H460 lung)
26.7 µM: TGI (SK-MEL-2 melanoma)
6.48 µM: TGI (SNB-75 CNS)

C/C(CC(=O)Nc1ccc([N+](=O)[O-])cc1)=N\Nc1ccc([N+](=O)[O-])cc1[N+](=O)[O-]
> 100 µM: TGI (SK-MEL-2 melanoma) | TGI (KM20L2 colon) | TGI (HL-60(TB) leukemia) | TGI (HCT-15 colon) | TGI (SNB-75 CNS) | TGI (NCI-H460 lung) | TGI (786-0 renal)
85.5 µM: TGI (NCI-H522 lung)

COc1ccc(Nc2ncccc2C(=O)NCc2cn(Cc3cccc(Oc4ccccc4)c3)nn2)c(OC)c1
> 84.5 µM: TGI (SNB-75 CNS)
> 22.7 µM: TGI (HL-60(TB) leukemia)
6.46 µM: TGI (NCI-H522 lung)
inactive: GI50 (NCI-H522 lung) 1.44 µM | GI50 (SK-MEL-2 melanoma) 5.03 µM | GI50 (HL-60(TB) leukemia) 2.55 µM | GI50 (SN12C renal) 3.51 µM | GI50 (HCT-15 colon) 1.68 µM | GI50 (SNB-75 CNS) 3.64 µM | GI50 (SNB-19 CNS) 3.64 µM | GI50 (NCI-H460 lung) 3.19 µM | GI50 (786-0 renal) 3.92 µM
> 100 µM: TGI (SK-MEL-2 melanoma) | TGI (SN12C renal) | TGI (HCT-15 colon) | TGI (SNB-19 CNS) | TGI (NCI-H460 lung) | TGI (786-0 renal)

Oc1[nH]c2ccccc2c1/C=c1/ccc2c(c1)N=C(c1cc(F)cc(F)c1)N=2
18.6 µM: TGI (NCI-H522 lung)
22.8 µM: TGI (NCI-H460 lung)
14.1 µM: TGI (HCT-15 colon)
22 µM: TGI (786-0 renal)
inactive: GI50 (NCI-H522 lung) 3.64 µM | GI50 (SK-MEL-2 melanoma) 5.71 µM | GI50 (HL-60(TB) leukemia) 12.6 µM | GI50 (SN12C renal) 11.4 µM | GI50 (HCT-15 colon) 3.52 µM | GI50 (SNB-75 CNS) 3.22 µM | GI50 (SNB-19 CNS) 9.62 µM | GI50 (NCI-H460 lung) 7.04 µM | GI50 (786-0 renal) 10 µM
17.7 µM: TGI (SNB-75 CNS)
40.5 µM: TGI (HL-60(TB) leukemia)
30 µM: TGI (SN12C renal)
20.8 µM: TGI (SK-MEL-2 melanoma)
28 µM: TGI (SNB-19 CNS)

CCCCCCn1c2c(c3c(O)cccc31)C(=O)c1ccccc1-2
37.9 µM: TGI (SK-MEL-2 melanoma)
37 µM: TGI (HCT-15 colon)
35.9 µM: TGI (NCI-H522 lung)
32.4 µM: TGI (786-0 renal)
35.8 µM: TGI (NCI-H460 lung)
inactive: GI50 (NCI-H522 lung) 17.2 µM | GI50 (SK-MEL-2 melanoma) 18.9 µM | GI50 (HL-60(TB) leukemia) 18.7 µM | GI50 (SN12C renal) 17.6 µM | GI50 (HCT-15 colon) 18.6 µM | GI50 (SNB-75 CNS) 46.3 µM | GI50 (SNB-19 CNS) 39.4 µM | GI50 (NCI-H460 lung) 17.6 µM | GI50 (786-0 renal) 17.1 µM
63.6 µM: TGI (HL-60(TB) leukemia)
32 µM: TGI (SN12C renal)
> 100 µM: TGI (SNB-75 CNS) | TGI (SNB-19 CNS)

CN(CC1NCCCC1O)C12CC3CC(CC(C3)C1)C2 (stereo unspecified)
> 100 µM: TGI (NCI-H522 lung) | TGI (KM20L2 colon) | TGI (HL-60(TB) leukemia) | TGI (SN12C renal) | TGI (HCT-15 colon) | TGI (SNB-19 CNS) | TGI (NCI-H460 lung) | TGI (786-0 renal)

C=CCn1c(=O)c(C(=O)NC(=O)OCC)cn(C2CCCCC2)c1=O
> 100 µM: TGI (SK-MEL-2 melanoma) | TGI (KM20L2 colon) | TGI (HL-60(TB) leukemia) | TGI (SN12C renal) | TGI (HCT-15 colon) | TGI (SNB-75 CNS) | TGI (SNB-19 CNS) | TGI (NCI-H460 lung) | TGI (786-0 renal)

CCOC(=O)CP(=S)(S)c1ccccc1 (stereo unspecified)
> 100 µM: TGI (NCI-H522 lung) | TGI (SK-MEL-2 melanoma) | TGI (KM20L2 colon) | TGI (HL-60(TB) leukemia) | TGI (SN12C renal) | TGI (SNB-19 CNS) | TGI (NCI-H460 lung) | TGI (786-0 renal)

CC(=O)Nc1ccc(Cc2ccc3[nH]c(=O)cc(C)c3c2)cc1
77.7 µM: TGI (SK-MEL-2 melanoma)
28.1 µM: TGI (SNB-75 CNS)
98.2 µM: TGI (786-0 renal)
> 100 µM: TGI (NCI-H522 lung) | TGI (HL-60(TB) leukemia) | TGI (SN12C renal) | TGI (HCT-15 colon) | TGI (SNB-19 CNS) | TGI (NCI-H460 lung)

COc1cc2oc(-c3ccc(O)cc3)cc(=O)c2c(OC)c1O
55.1 µM: TGI (SNB-75 CNS)
> 100 µM: TGI (NCI-H522 lung) | TGI (SK-MEL-2 melanoma) | TGI (HL-60(TB) leukemia) | TGI (SN12C renal) | TGI (HCT-15 colon) | TGI (SNB-19 CNS) | TGI (NCI-H460 lung) | TGI (786-0 renal)

CC(O)c1ccc(C(O)/C(=N\NC(=O)c2ccncc2)c2nc3ccc([N+](=O)[O-])cc3[nH]c2=O)cc1 (stereo unspecified)
> 100 µM: TGI (NCI-H522 lung) | TGI (KM20L2 colon) | TGI (HL-60(TB) leukemia) | TGI (SN12C renal) | TGI (HCT-15 colon) | TGI (SNB-75 CNS) | TGI (SNB-19 CNS) | TGI (NCI-H460 lung) | TGI (786-0 renal)

COC(=O)[C@H](C)[C@@H]1CC[C@](C)(CCC2=C(C)CCCC2(C)C)OO1
> 25 µM: TGI (NCI-H522 lung) | TGI (SK-MEL-2 melanoma) | TGI (HL-60(TB) leukemia) | TGI (SN12C renal) | TGI (HCT-15 colon) | TGI (SNB-75 CNS) | TGI (SNB-19 CNS) | TGI (NCI-H460 lung) | TGI (786-0 renal)
